Patent US12692274B2, “Tetrahydroisoquinoline derivatives for the treatment of red blood disorders and inflammatory diseases” (Sanofi, priority 2020, dated 2026)
“And” between values parts separate entries of the source, which are not always exact repeats. Equal entries are not always repeated. Where two headings read alike, the source gives them in different places.

Key:
[1] = tested on: NQO1 activation in BEAS-2B cells; assay: BEAS-2B cellular MTT assay of NQO1 activation, 0% HSA; assay type: cell-based; settings: Serum Free W, read-out: BEAS EC50 (nM) Serum Free W
Method: The growth rate of the BEAS-2B cells changed based on the lot of BEGM SingleQuots in the BEGM media. The cell growth rate was determined for each lot of SingleQuots. Ideally, cells were thawed into media with the new lot of SingleQuots and grown for two passages before testing; however, growing an active culture in the new lot of media for two to three passages before testing was also acceptable. Until the cell growth rate was determined, cells were seeded at different densities (cells/cm^2) in multiple tissue culture flasks in order to avoid the cells becoming more than 70% confluent. Cells should not go above 70% confluent as the cells differentiate when they become confluent. After the cells were grown in the new lot of media as described above, the number of cells per well needed to seed in the collagen plates was determined by seeding different numbers of cells per well and incubating for 48 hours. Cell confluency was checked after 48 hours and a cell number that results in just below to just above confluency was chosen for future plate seeding. Cell confluency in the assay plate was 95-100% confluent after 48 hours.
Cell media consists of BEBM basal media with the BEGM SingleQuots added. SingleQuots vials were thawed in the tissue culture hood, and GA-1000 (Gentamicin-Amphotericin) was not added.
If complete media was to be used immediately, BEBM basal media was warmed to room temperature in the hood, but not as high as 37° C. When the media was made for future use, SingleQuots were added to cold BEBM. One at a time, the SingleQuots components (except GA-1000) were added to the BEBM media. After removal of each component from the vial, the vial was rinsed with 0.5-1 mL of BEBM (depending on the volume the vial could hold) and added to the bottle of BEBM. Once all components were added, the label that comes with the SingleQuots kit was put on the bottle of media and the date was recorded. The bottle of media was mixed by gentle shaking. The media was not filtered. This media was stored at 4° C., with any leftover media disposed of one month after the date the SingleQuots were added.
BEAS-2B Cell Splitting Protocol:
First, Trypsin was warmed to 37° C. in the water bath. The media was then warmed to room temperature by letting it sit in the tissue culture hood, but not as high as 37° C. The media was aspirated from flask(s) and the flask(s) were washed with PBS. From 1 to 1.5 mL of warm trypsin were added to each flask and incubated at 37° C. until cells came off the flask on their own (~8-10 minutes), with no vigorous tapping on the flask to detach the cells.
Media was added to each flask to a total volume of 8-10 mL per flask and transferred to 15 mL conical tube(s). The cells were spun down at 120 g for 5 minutes, level 5 brake. The cells can be spun down between 100 and 150 g. Next the media was aspirated and the cell pellet was resuspended in fresh media by pipetting up and down and flicking the tube side to side. Any clumps of cells that remained were allowed to settle to the bottom of the tube before the top suspension was transferred into another tube, leaving about 1 mL of media in the original tube. The 1 mL of media and cell clumps were mixed with a single channel p1000 pipette, and any remaining clumps were removed before adding the cells in suspension to the other tube. The suspension was mixed with a pipette, an aliquot was removed, and the cells were counted. The amount of cells/cm^2 desired was calculated and the required volume of cells was added to tissue culture flasks. For example, use of SingleQuots with ~6000 cells/cm^2 was appropriate for a three day incubation and ~3000 cells/cm^2 for a five day incubation. Optimal cell density differed depending on lot of SingleQuots. The flasks were incubated at 37° C. in 5% CO2.
Day One: Seeding BEAS-2B Cells in Collagen Plates:
Plate(s) were either seeded with 0.3% or 0% HSA. While the protocol was similar for both conditions any differences are noted herein below. […]

[2] = biological target: HIS-Keap1 full length / Biotin-Nrf2 (16-mer) (Homo sapiens, UniProt Q14145); assay: biochemical
HIS-Keap1 full length / Biotin-Nrf2 (16-mer), sequence (Q14145 whole entry): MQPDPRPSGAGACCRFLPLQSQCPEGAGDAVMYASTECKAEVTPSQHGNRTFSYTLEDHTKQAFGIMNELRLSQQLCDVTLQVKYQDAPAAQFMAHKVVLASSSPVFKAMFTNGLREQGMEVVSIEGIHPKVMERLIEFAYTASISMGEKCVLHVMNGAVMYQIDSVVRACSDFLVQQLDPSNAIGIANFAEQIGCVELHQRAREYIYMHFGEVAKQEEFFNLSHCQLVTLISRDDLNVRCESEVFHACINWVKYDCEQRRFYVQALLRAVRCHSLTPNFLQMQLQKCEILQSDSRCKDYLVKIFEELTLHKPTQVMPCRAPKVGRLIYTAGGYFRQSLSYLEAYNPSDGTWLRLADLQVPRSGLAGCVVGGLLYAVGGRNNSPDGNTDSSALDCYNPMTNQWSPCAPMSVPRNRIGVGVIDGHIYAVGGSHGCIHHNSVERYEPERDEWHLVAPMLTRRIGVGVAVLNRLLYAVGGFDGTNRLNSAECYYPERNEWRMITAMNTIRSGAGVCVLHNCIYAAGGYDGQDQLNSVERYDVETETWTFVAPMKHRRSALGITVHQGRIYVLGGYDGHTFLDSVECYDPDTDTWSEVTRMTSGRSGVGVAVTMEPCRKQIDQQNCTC

| Compound | IC50 [2] | other results |
| --- | --- | --- |
| Cc1c2n(C)c3ccc(cc13)CCCCCCn1nnc3c(C)c(cnc31)[C@H](CC(=O)O)c1ccc3c(c1)CN(CC3)C2=O [Compound 68] | 0.3 nM | EC50 ([1]; Homo sapiens): 0.4 nM; EC50 [1]: 0.3 nM |
| Cc1c2ccc3c1nnn3CCCCCCOc1cnc(nc1)C(=O)N1CCc3ccc(cc3C1)C2CC(=O)O (centres unmarked) [Compound 198] | 0.5 nM and 1.2 nM and 1 nM |  |
| O=C(O)C[C@H]1c2ccc3c(c2)CN(CC3)C(=O)c2cccc(c2)OCCCCCn2nnc3cc1ccc32 [Compound 434] | 17.8 nM and 55.4 nM |  |
| O=C(O)CC1c2ccc3c(c2)CN(CC3)C(=O)c2ccc(cc2)OCCOCCn2nnc3cc1ccc32 (centres unmarked) [Compound 412] | 28.7 nM and 47.9 nM |  |
| O=C(O)CC1c2ccc(nc2)OCCCCCOc2cccc(c2)C(=O)N2CCc3ccc1cc3C2 (centres unmarked) [Compound 344] | 4410 nM and 4850 nM |  |
| Cc1c2ccc3c1nnn3CCCCCCc1ccc3c(c1)cc(n3C)C(=O)N1CCc3ccc(cc3C1)[C@H]2[C@@H](C)C(=O)O [Compound 29] | 192 nM and 103 nM |  |
| CC(C)(C(=O)O)C1c2ccc3c(c2)CN(CC3)C(=O)c2ccc(cc2F)CCCCCn2nnc3cc1ccc32 (centres unmarked) [Compound 271] | 1.9 nM (2×) and 1.7 nM |  |
| Cc1c2cccc1C(=O)N1CCc3ccc(cc3C1)C(CC(=O)O)c1ccc3c(c1)nnn3CCCCO2 (centres unmarked) [Compound 417] | 42.7 nM and 35.2 nM |  |
| Cc1c2cccc1C(=O)N1CCc3ccc(cc3C1)C(CC(=O)O)c1ccc3c(c1)nnn3C/C=C/CO2 (centres unmarked) [Compound 429] | 112 nM and 82.3 nM |  |
| O=C(O)CC1c2ccc3c(c2)CN(CC3)C(=O)c2ccc(cc2)CCCCCn2nnc3c(Cl)c1ccc32 (centres unmarked) [Compound 249] | 1.1 nM and 1.3 nM |  |
| Cc1ccc2cc1OCCCCCn1nnc3cc(ccc31)C(CC(=O)O)c1ccc3c(c1)CN(CC3)C2=O (centres unmarked) [Compound 430] | 67.5 nM and 56.1 nM |  |
| Cc1c2ccc3c1nnn3CCOCCOc1ccc(cc1)C(=O)N1CCc3ccc(cc3C1)C2CC(=O)O (centres unmarked) [Compound 398] | 5.2 nM and 17.3 nM |  |
| Cc1ccc2cc1C(=O)N1CCc3ccc(cc3C1)C(CC(=O)O)c1ccc3c(c1)nnn3CCCCCO2 (centres unmarked) [Compound 422] | 11.3 nM and 12.2 nM |  |
| Cc1c2ccc3c1nnn3C/C=C/CCc1ccc3c(c1)cc(n3C)C(=O)N1CCc3ccc(cc3C1)[C@H]2[C@H](C)C(=O)O [Compound 360] | 0.9 nM |  |
| Cc1c2ccc3c1nnn3CCCCCCc1ccc3c(c1)cc(n3C)C(=O)N1CCc3ccc(cc3C1)[C@H]2[C@H](C)C(=O)O [Compound 30] | 103 nM and 159 nM |  |
| Cc1c2cccc1C(=O)N1CCc3ccc(cc3C1)C(CC(=O)O)c1ccc3c(c1)nnn3CCCCCO2 (centres unmarked) [Compound 420] | 8.5 nM and 8.3 nM |  |
| O=C(O)CC1c2ccc3c(c2)CN(CC3)C(=O)c2cccc(c2)OCCCCCn2nnc3cc1ccc32 (centres unmarked) [Compound 440] | 64.9 nM and 70.3 nM and 114 nM and 113 nM |  |
| O=C(O)CC1c2ccc(nc2)OCC/C=C\COc2cccc(c2)C(=O)N2CCc3ccc1cc3C2 (centres unmarked) [Compound 345] | 2900 nM and 3360 nM |  |
| Cc1ccc2cc1C(=O)N1CCc3ccc(cc3C1)C(CC(=O)O)c1ccc3c(c1)nnn3CCCCO2 (centres unmarked) [Compound 431] | 102 nM and 96.9 nM |  |
| CC(C)(C(=O)O)[C@H]1c2ccc3c(c2)CN(CC3)C(=O)c2c(F)cc(cc2F)OCCCCCCn2nnc3cc1ccc32 [Compound 235] | 0.5 nM and 0.6 nM (2×) |  |
| O=C(O)C[C@@H]1c2ccc3c(c2)CN(CC3)C(=O)c2cccc(c2)OCCCCCn2nnc3cc1ccc32 [Compound 433] | 287 nM and 204 nM |  |
| Cc1c2ccc3nn(nc13)CC/C=C/COc1cccc(c1)C(=O)N1CCc3ccc(cc3C1)C2CC(=O)O (centres unmarked) [Compound 425] | 4320 nM and 5390 nM |  |
| Cc1c2ccc3c1nnn3CCCCCc1ccc(c3ccn(C)c13)C(=O)N1CCc3ccc(cc3C1)[C@@H]2CC(=O)O [Compound 33] | 0.4 nM and 0.3 nM |  |
| Cc1c2cccc1C(=O)N1CCc3ccc(cc3C1)C(CC(=O)O)c1ccc3c(nnn3CCCCCO2)c1C (centres unmarked) [Compound 408] | 1.6 nM and 1.5 nM and 13.2 nM and 5 nM |  |

| Compound | IC50 [2] | other results |
| --- | --- | --- |
| O=C(O)C[C@@H]1c2ccc3c(c2)CN(CC3)Cc2ccc(cc2)OCCCCCCn2nnc3cc1ccc32 [Compound 405] | 2150 nM and 2050 nM |  |
| Cc1cc2ccc1C(=O)N1CCc3ccc(cc3C1)[C@@H](C(C)(C)C(=O)O)c1ccc3c(c1)nnn3CCCCCCO2 [Compound 237] | 22.9 nM and 36.1 nM and 70.2 nM and 28.2 nM and 29.9 nM |  |
| Cc1cc2ccc1C(=O)N1CCc3ccc(cc3C1)C(CC(=O)O)c1ccc3c(nnn3CCCCC2)c1F (centres unmarked) [Compound 147] | 0.4 nM and 0.3 nM |  |
| O=C(O)CC1c2ccc3c(c2)CN(CC3)C(=O)c2cccc(c2)OC/C=C/CCn2nnc3ccc1cc32 (centres unmarked) [Compound 436] | 2670 nM and 3410 nM |  |
| O=C(O)CC1c2ccc3c(c2)CN(CC3)S(=O)(=O)c2ccc(cc2)OCCCCCCn2nnc3cc1ccc32 (centres unmarked) [Compound 404] | 662 nM and 271 nM |  |
| O=C(O)CC1c2ccc3c(c2)CN(CC3)C(=O)c2cccc(c2)OCCCCc2nnc3cc1ccn23 (centres unmarked) [Compound 415] | 13200 nM and 8750 nM |  |
| Cc1c2ccc3c1nnn3CCCCCCc1ccc(c3ccn(C)c13)C(=O)N1CCc3ccc(cc3C1)[C@@H]2CC(=O)O [Compound 32] | 0.5 nM and 0.6 nM |  |
| CC(C)(C(=O)O)C1c2ccc3c(c2)CN(CC3)C(=O)c2ccc(cc2F)CCCCCCn2nnc3cc1ccc32 (centres unmarked) [Compound 281] | 0.4 nM (2×) and 0.5 nM (2×) and 1.4 nM and 0.6 nM |  |
| O=C(O)CC1c2ccc3c(c2)CN(CC3)C(=O)c2cccc(c2)OC/C=C/CCn2nc3ccc1cc3n2 (centres unmarked) [Compound 437] | 219 nM and 234 nM |  |
| O=C(O)CC1c2ccc3c(c2)CN(CC3)C(=O)c2ccc(cc2)OC/C=C/CCn2nnc3cc1ccc32 (centres unmarked) [Compound 424] | 4.8 nM and 4.7 nM and 2.2 nM and 0.5 nM |  |
| Cc1c2ccc3c1nnn3CCCCCOc1cccc(c1)C(=O)N1CCc3ccc(cc3C1)C2CC(=O)O (centres unmarked) [Compound 421] | 10.1 nM and 8.4 nM |  |
| O=C(O)CC1c2ccc3c(c2)CN(CC3)C(=O)c2cccc(c2)OCCCCn2nnc3ccc1cc32 (centres unmarked) [Compound 435] | > 30000 nM |  |
| Cc1c2cccc1C(=O)N1CCc3ccc(cc3C1)C(CC(=O)O)c1ccc3c(c1)nnn3CC/C=C/CO2 (centres unmarked) [Compound 427] | 9.2 nM and 9.9 nM |  |
| Cc1ccc2cc1OCCCCn1nnc3cc(ccc31)C(CC(=O)O)c1ccc3c(c1)CN(CC3)C2=O (centres unmarked) [Compound 428] | 1090 nM and 962 nM |  |
| Cc1ccc2cc1C(=O)N1CCc3ccc(cc3C1)C(CC(=O)O)c1ccc3c(c1)nnn3C/C=C/CO2 (centres unmarked) [Compound 432] | 93.1 nM and 93.3 nM |  |
| Cc1c2ccc3c1nnn3CCCCCc1ccc(c3c1ccn3C)C(=O)N1CCc3ccc(cc3C1)[C@@H]2CC(=O)O [Compound 26] | 0.4 nM and 0.3 nM |  |
| Cc1c2ccc3c1nnn3CCCCCCc1ccc(c3c1ccn3C)C(=O)N1CCc3ccc(cc3C1)[C@@H]2CC(=O)O [Compound 27] | 0.4 nM and 0.3 nM |  |
| O=C(O)CC1c2ccc3c(c2)CN(CC3)C(=O)c2ccc(cc2)OCC=CCn2nnc3cc1ccc32 (mixture of isomers) [Compound 419, 2-[(12E)-20-oxo-15-oxa-8,9,10,21-tetrazahexacyclo[19.5.3.216,19.13,7.06,10.024,28]dotriaconta-1(27),3,5,7(32),8,12,16(31),17,19(30),24(28),25-undecaen-2-yl]acetic Acid] | 5.7 nM and 19.1 nM and 16.8 nM and 10.8 nM |  |
| Cc1ccc2cc1C(=O)N1CCc3ccc(cc3C1)[C@H]([C@@H](C)C(=O)O)c1ccc3c(nnn3CCCCCO2)c1C [Compound 411] | 5.2 nM and 10.1 nM |  |
| CC(C)(C(=O)O)C1c2ccc3c(c2)CN(CC3)C(=O)c2c(F)cc(cc2F)CCCCCn2nnc3cc1ccc32 (centres unmarked) [Compound 282] | 0.4 nM (2×) and 0.3 nM (3×) and 1.1 nM |  |
| Cc1c2ccc3c1nnn3CCOCCOc1cccc(c1)C(=O)N1CCc3ccc(cc3C1)C2CC(=O)O (centres unmarked) [Compound 414] | 106 nM and 313 nM |  |
| Cc1c2ccc3c1nnn3CCCCCCc1ccc3c(c1)cc(n3CCC(F)(F)F)C(=O)N1CCc3ccc(cc3C1)[C@@H]2CC(=O)O [Compound 31] | 2.1 nM and 1.2 nM |  |
| Cc1ccc2cc1C(=O)N1CCc3ccc(cc3C1)C(CC(=O)O)c1ccc3c(c1)nnn3CC/C=C/CO2 (centres unmarked) [Compound 426] | 9.2 nM and 11.6 nM |  |
| O=C(O)CC1c2ccc3c(c2)CN(CC3)C(=O)c2cccc(c2)OC/C=C/CCn2nnc3cc1ccc32 (centres unmarked) [Compound 439] | 52.7 nM and 121 nM and 119 nM and 122 nM and 106 nM |  |
